In PubChem BioAssay AID1918991 (Molecular Pharmacology Branch, DTP, NCI, 2023):

System: 186277-243-T-J2-PDC complex spheroid growth
Test: Anticancer human tumor 186277-243-T-J2-PDC patient-derived colon adenocarcinoma cell line growth inhibition [AhR]
Conditions: for IC50: curve of first compound; for viability, T/C: stronger effect = lower value
Method in brief: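 Agents were dosed in half-log steps down from roughly clinical Cmax, or from 10 microM where Cmax was unknown, alone and with AhR antagonists. Read-out: percent test/control growth of tumor spheroids containing HUVEC and MSC stromal cells.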

[1] = second compound 0.1 µM, first compound 0.0316 µM
[2] = second compound 0.1 µM, first compound 0.1 µM
[3] = second compound 0.1 µM, first compound 0.316 µM
[4] = second compound 0.1 µM, first compound 1 µM
[5] = second compound 0.1 µM, first compound 3.16 µM
[6] = second compound 0.1 µM, first compound 10 µM
[7] = second compound 0.316 µM, first compound 0.0316 µM
[8] = second compound 0.316 µM, first compound 0.1 µM
[9] = second compound 0.316 µM, first compound 0.316 µM
[10] = second compound 0.316 µM, first compound 1 µM
[11] = second compound 0.316 µM, first compound 3.16 µM
[12] = second compound 0.316 µM, first compound 10 µM
[13] = second compound 1 µM, first compound 0.0316 µM
[14] = second compound 1 µM, first compound 0.1 µM
[15] = second compound 1 µM, first compound 0.316 µM
[16] = second compound 1 µM, first compound 1 µM
[17] = second compound 1 µM, first compound 3.16 µM
[18] = second compound 1 µM, first compound 10 µM
[19] = second compound 3.16 µM, first compound 0.0316 µM
[20] = second compound 3.16 µM, first compound 0.1 µM
[21] = second compound 3.16 µM, first compound 0.316 µM
[22] = second compound 3.16 µM, first compound 1 µM
[23] = second compound 3.16 µM, first compound 3.16 µM
[24] = second compound 3.16 µM, first compound 10 µM
[25] = second compound 10 µM, first compound 0.0316 µM
[26] = second compound 10 µM, first compound 0.1 µM
[27] = second compound 10 µM, first compound 0.316 µM
[28] = second compound 10 µM, first compound 1 µM
[29] = second compound 10 µM, first compound 3.16 µM
[30] = second compound 10 µM, first compound 10 µM
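Further: spheroids exposed to compounds for seven days before the viability read.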
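Wherever viability, T/C is given: luminescent signal used as a stand-in for viable cell amount; 100% = DMSO vehicle control wells.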

SMILES: CC1(C)CCC(CN2CCN(c3ccc(C(=O)NS(=O)(=O)c4ccc(NCC5CCOCC5)c([N+](=O)[O-])c4)c(Oc4cnc5[nH]ccc5c4)c3)CC2)=C(c2ccc(Cl)cc2)C1 + Cc1cncc(-c2nc(NCCc3c[nH]c4ccccc34)c3ncn(C(C)C)c3n2)c1
- IC50 (second compound 0.1 µM): > 10 µM
- IC50 (second compound 0.316 µM): > 10 µM
- IC50 (second compound 1 µM): > 10 µM
- IC50 (second compound 3.16 µM): > 10 µM
- IC50 (second compound 10 µM): > 10 µM
- viability, T/C [1]: 88.2%
- viability, T/C [2]: 97.7%
- viability, T/C [3]: 99.4%
- viability, T/C [4]: 91.4%
- viability, T/C [5]: 94.3%
- viability, T/C [6]: 94.8%
- viability, T/C [7]: 109%
- viability, T/C [8]: 87.4%
- viability, T/C [9]: 102%
- viability, T/C [10]: 83.5%
- viability, T/C [11]: 100%
- viability, T/C [12]: 106%
- viability, T/C [13]: 102%
- viability, T/C [14]: 85.5%
- viability, T/C [15]: 97.4%
- viability, T/C [16]: 97.9%
- viability, T/C [17]: 103%
- viability, T/C [18]: 103%
- viability, T/C [19]: 110%
- viability, T/C [20]: 108%
- viability, T/C [21]: 105%
- viability, T/C [22]: 103%
- viability, T/C [23]: 109%
- viability, T/C [24]: 105%
- viability, T/C [25]: 77%
- viability, T/C [26]: 81.6%
- viability, T/C [27]: 82.8%
- viability, T/C [28]: 95.5%
- viability, T/C [29]: 88.4%
- viability, T/C [30]: 88.5%

SMILES: CCN(c1cc(-c2ccc(CN3CCOCC3)cc2)cc(C(=O)NCc2c(C)cc(C)[nH]c2=O)c1C)C1CCOCC1 + Cc1cncc(-c2nc(NCCc3c[nH]c4ccccc34)c3ncn(C(C)C)c3n2)c1
- IC50 (second compound 0.1 µM): > 3 µM
- IC50 (second compound 0.316 µM): > 3 µM
- IC50 (second compound 1 µM): > 3 µM
- IC50 (second compound 3.16 µM): > 3 µM
- IC50 (second compound 10 µM): 0.652 µM
- viability, T/C (second compound 0.1 µM, first compound 0.00949 µM): 106%
- viability, T/C (second compound 0.1 µM, first compound 0.03 µM): 89.7%
- viability, T/C (second compound 0.1 µM, first compound 0.0949 µM): 108%
- viability, T/C (second compound 0.1 µM, first compound 0.3 µM): 102%
- viability, T/C (second compound 0.1 µM, first compound 0.949 µM): 94%
- viability, T/C (second compound 0.1 µM, first compound 3 µM): 98.5%
- viability, T/C (second compound 0.316 µM, first compound 0.00949 µM): 91.8%
- viability, T/C (second compound 0.316 µM, first compound 0.03 µM): 110%
- viability, T/C (second compound 0.316 µM, first compound 0.0949 µM): 102%
- viability, T/C (second compound 0.316 µM, first compound 0.3 µM): 101%
- viability, T/C (second compound 0.316 µM, first compound 0.949 µM): 106%
- viability, T/C (second compound 0.316 µM, first compound 3 µM): 103%
- viability, T/C (second compound 1 µM, first compound 0.00949 µM): 98%
- viability, T/C (second compound 1 µM, first compound 0.03 µM): 115%
- viability, T/C (second compound 1 µM, first compound 0.0949 µM): 115%
- viability, T/C (second compound 1 µM, first compound 0.3 µM): 102%
- viability, T/C (second compound 1 µM, first compound 0.949 µM): 111%
- viability, T/C (second compound 1 µM, first compound 3 µM): 107%
- viability, T/C (second compound 3.16 µM, first compound 0.00949 µM): 102%
- viability, T/C (second compound 3.16 µM, first compound 0.03 µM): 103%
- viability, T/C (second compound 3.16 µM, first compound 0.0949 µM): 103%
- viability, T/C (second compound 3.16 µM, first compound 0.3 µM): 105%
- viability, T/C (second compound 3.16 µM, first compound 0.949 µM): 90.7%
- viability, T/C (second compound 3.16 µM, first compound 3 µM): 119%
- viability, T/C (second compound 10 µM, first compound 0.00949 µM): 84.8%
- viability, T/C (second compound 10 µM, first compound 0.03 µM): 98.5%
- viability, T/C (second compound 10 µM, first compound 0.0949 µM): 82.9%
- viability, T/C (second compound 10 µM, first compound 0.3 µM): 72.1%
- viability, T/C (second compound 10 µM, first compound 0.949 µM): 39.6%
- viability, T/C (second compound 10 µM, first compound 3 µM): 9.95%

SMILES: Cn1ncnc1C1c2n[nH]c(=O)c3cc(F)cc(c23)NC1c1ccc(F)cc1 (stereo not given) + Cc1cncc(-c2nc(NCCc3c[nH]c4ccccc34)c3ncn(C(C)C)c3n2)c1
- IC50 (second compound 0.1 µM): > 0.1 µM
- IC50 (second compound 0.316 µM): > 0.1 µM
- IC50 (second compound 1 µM): > 0.1 µM
- IC50 (second compound 3.16 µM): > 0.1 µM
- IC50 (second compound 10 µM): > 0.1 µM
- viability, T/C (second compound 0.1 µM, first compound 0.000316 µM): 89%
- viability, T/C (second compound 0.1 µM, first compound 0.001 µM): 83.9%
- viability, T/C (second compound 0.1 µM, first compound 0.00316 µM): 100%
- viability, T/C (second compound 0.1 µM, first compound 0.01 µM): 107%
- viability, T/C [1]: 115%
- viability, T/C [2]: 123%
- viability, T/C (second compound 0.316 µM, first compound 0.000316 µM): 109%
- viability, T/C (second compound 0.316 µM, first compound 0.001 µM): 103%
- viability, T/C (second compound 0.316 µM, first compound 0.00316 µM): 95%
- viability, T/C (second compound 0.316 µM, first compound 0.01 µM): 110%
- viability, T/C [7]: 121%
- viability, T/C [8]: 135%
- viability, T/C (second compound 1 µM, first compound 0.000316 µM): 92.5%
- viability, T/C (second compound 1 µM, first compound 0.001 µM): 97.1%
- viability, T/C (second compound 1 µM, first compound 0.00316 µM): 102%
- viability, T/C (second compound 1 µM, first compound 0.01 µM): 107%
- viability, T/C [13]: 130%
- viability, T/C [14]: 139%
- viability, T/C (second compound 3.16 µM, first compound 0.000316 µM): 102%
- viability, T/C (second compound 3.16 µM, first compound 0.001 µM): 95.3%
- viability, T/C (second compound 3.16 µM, first compound 0.00316 µM): 99.3%
- viability, T/C (second compound 3.16 µM, first compound 0.01 µM): 112%
- viability, T/C [19]: 127%
- viability, T/C [20]: 128%
- viability, T/C (second compound 10 µM, first compound 0.000316 µM): 77.4%
- viability, T/C (second compound 10 µM, first compound 0.001 µM): 90.7%
- viability, T/C (second compound 10 µM, first compound 0.00316 µM): 83.7%
- viability, T/C (second compound 10 µM, first compound 0.01 µM): 66.9%
- viability, T/C [25]: 69.6%
- viability, T/C [26]: 68%

SMILES: NS(=O)(=O)OCC1CC(n2ccc3c(NC4CCc5ccccc54)ncnc32)CC1O (stereo not given) + Cc1cncc(-c2nc(NCCc3c[nH]c4ccccc34)c3ncn(C(C)C)c3n2)c1
- IC50 (second compound 0.1 µM): 0.693 µM
- IC50 (second compound 0.316 µM): 0.563 µM
- IC50 (second compound 1 µM): 0.492 µM
- IC50 (second compound 3.16 µM): 0.365 µM
- IC50 (second compound 10 µM): 0.041 µM
- viability, T/C [1]: 114%
- viability, T/C [2]: 93.1%
- viability, T/C [3]: 80.4%
- viability, T/C [4]: 35.6%
- viability, T/C [5]: 13.2%
- viability, T/C [6]: 3.87%
- viability, T/C [7]: 104%
- viability, T/C [8]: 96.2%
- viability, T/C [9]: 71.4%
- viability, T/C [10]: 28.6%
- viability, T/C [11]: 9.15%
- viability, T/C [12]: 3.24%
- viability, T/C [13]: 96%
- viability, T/C [14]: 89.8%
- viability, T/C [15]: 67.6%
- viability, T/C [16]: 22.2%
- viability, T/C [17]: 5.08%
- viability, T/C [18]: 2.62%
- viability, T/C [19]: 91.8%
- viability, T/C [20]: 86.8%
- viability, T/C [21]: 52.2%
- viability, T/C [22]: 21.3%
- viability, T/C [23]: 5%
- viability, T/C [24]: 2.12%
- viability, T/C [25]: 57.8%
- viability, T/C [26]: 24.4%
- viability, T/C [27]: 9.9%
- viability, T/C [28]: 7.65%
- viability, T/C [29]: 2.02%
- viability, T/C [30]: 1.58%
